SMILES strings stand for the structures. A value given as a limit tells only on which side of the number the result lay.

In assay [1] the target is T1, Serine/threonine-protein kinase RIO1 (Homo sapiens) (UniProt Q9BRS2).
T1 sequence (whole entry): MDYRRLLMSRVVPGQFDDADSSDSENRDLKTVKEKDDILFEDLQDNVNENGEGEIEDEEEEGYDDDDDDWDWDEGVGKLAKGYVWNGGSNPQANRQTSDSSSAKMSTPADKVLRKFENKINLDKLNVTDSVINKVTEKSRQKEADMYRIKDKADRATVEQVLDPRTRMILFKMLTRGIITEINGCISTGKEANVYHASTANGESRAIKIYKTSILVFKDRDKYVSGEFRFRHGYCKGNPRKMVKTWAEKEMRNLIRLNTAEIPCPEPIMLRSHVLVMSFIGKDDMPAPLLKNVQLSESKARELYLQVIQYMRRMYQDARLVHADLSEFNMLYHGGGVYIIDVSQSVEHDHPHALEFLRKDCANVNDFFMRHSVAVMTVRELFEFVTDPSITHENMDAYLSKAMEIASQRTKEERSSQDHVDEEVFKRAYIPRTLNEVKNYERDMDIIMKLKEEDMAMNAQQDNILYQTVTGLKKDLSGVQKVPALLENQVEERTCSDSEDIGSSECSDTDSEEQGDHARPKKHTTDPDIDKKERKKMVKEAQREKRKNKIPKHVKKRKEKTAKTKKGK
Briefly: Selectivity interaction (KinomeScan (DiscoverX)) EUB0001619a RIOK1. The conditions noted are these: at 1 µM.

Assay [2] addresses Progesterone receptor (Homo sapiens) (UniProt P06401). Briefly: Selectivity interaction (Eurofins CEREP Diversity Profile (receptors and ion channels)) EUB0000279b PGR. Conditions: at 10 µM.
Assay [3] deals with Tyrosine-protein kinase ABL1 (Homo sapiens), P00519 [H396P]. Conditions: at 10 µM.
The target of assay [4] is Ribosomal protein S6 kinase alpha-5 (Homo sapiens) (UniProt O75582). As to the kind of experiment: Selectivity interaction (KinomeScan (DiscoverX)) EUB0000607a RPS6KA5. Conditions: at 10 µM.
For assay [5], the target named is Dual specificity tyrosine-phosphorylation-regulated kinase 1A (Homo sapiens, UniProt Q13627). Briefly: Selectivity interaction (Kinase panel (DSF assay)) EUB0001559a DYRK1A.
Assay [6] deals with T2, Cyclin-dependent kinase-like 2 (Homo sapiens) (UniProt Q92772).
T2 sequence (whole entry): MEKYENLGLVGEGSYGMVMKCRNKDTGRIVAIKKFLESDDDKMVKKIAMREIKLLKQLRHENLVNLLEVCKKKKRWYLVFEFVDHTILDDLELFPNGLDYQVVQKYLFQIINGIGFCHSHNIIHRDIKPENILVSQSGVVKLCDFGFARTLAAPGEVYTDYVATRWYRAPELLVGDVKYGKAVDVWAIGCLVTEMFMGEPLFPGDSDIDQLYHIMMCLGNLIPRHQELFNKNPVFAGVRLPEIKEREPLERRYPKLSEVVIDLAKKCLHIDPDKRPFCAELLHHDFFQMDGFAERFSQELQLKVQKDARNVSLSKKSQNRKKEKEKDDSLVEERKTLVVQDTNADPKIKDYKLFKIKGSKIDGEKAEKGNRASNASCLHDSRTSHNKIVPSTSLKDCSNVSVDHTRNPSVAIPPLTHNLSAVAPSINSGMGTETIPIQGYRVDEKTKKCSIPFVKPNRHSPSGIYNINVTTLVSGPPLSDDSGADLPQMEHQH
As to the kind of experiment: Selectivity interaction (KinomeScan (DiscoverX)) EUB0000045b CDKL2.

For assay [7], the target named is SRSF protein kinase 1 (Homo sapiens, UniProt Q96SB4). As to the kind of experiment: Selectivity interaction (ProQinase) EUB0000171b SRPK1.
Assay [8] has as its target Homeodomain-interacting protein kinase 2 (Homo sapiens, UniProt Q9H2X6). As to the kind of experiment: Selectivity interaction (KinomeScan (DiscoverX)) EUB0001049a HIPK2. Conditions: at 1 µM.
The target of assay [9] is Growth hormone secretagogue receptor type 1 (Homo sapiens, UniProt Q92847). Briefly: Selectivity interaction (Ghrelin receptor binding assay, human recombinant ) EUB0000877a […].
Assay [10] deals with Ephrin type-B receptor 4 (Homo sapiens, UniProt P54760). As to the kind of experiment: Selectivity interaction (Kinase panel (33PanQinase(R) Activity Assay)) EUB0000877a EPHB4.
Assay [11] deals with T3, Uncharacterized serine/threonine-protein kinase SBK3 (Homo sapiens) (UniProt P0C264).
T3 sequence (whole entry): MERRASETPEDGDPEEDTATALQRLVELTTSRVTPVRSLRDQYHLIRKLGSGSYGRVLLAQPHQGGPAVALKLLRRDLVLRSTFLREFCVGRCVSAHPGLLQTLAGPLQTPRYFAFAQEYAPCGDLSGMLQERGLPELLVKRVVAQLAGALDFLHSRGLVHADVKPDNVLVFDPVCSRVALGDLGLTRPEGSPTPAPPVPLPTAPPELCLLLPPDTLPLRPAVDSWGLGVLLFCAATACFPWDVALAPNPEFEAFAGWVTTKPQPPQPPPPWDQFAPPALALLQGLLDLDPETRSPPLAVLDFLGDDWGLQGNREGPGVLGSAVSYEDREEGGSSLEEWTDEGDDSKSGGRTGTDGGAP
As to the kind of experiment: Selectivity interaction (KinomeScan (DiscoverX)) EUB0000618a SBK3. Conditions: at 10 µM.

For assay [12], the target named is Platelet-derived growth factor receptor alpha (Homo sapiens, UniProt P16234). As to the kind of experiment: Selectivity interaction (KinomeScan (DiscoverX)) EUB0000092b PDGFRA. Conditions: at 10 µM.
Assay [13] has as its target Bromodomain testis-specific protein (Homo sapiens) (UniProt Q58F21). As to the kind of experiment: Selectivity interaction (Human bromodomain panel (DSF assay)) EUB0000233b BRDT.
Assay [14] concerns the target T4, Serine/threonine-protein kinase Nek3 (Homo sapiens) (UniProt P51956).
T4 sequence (whole entry): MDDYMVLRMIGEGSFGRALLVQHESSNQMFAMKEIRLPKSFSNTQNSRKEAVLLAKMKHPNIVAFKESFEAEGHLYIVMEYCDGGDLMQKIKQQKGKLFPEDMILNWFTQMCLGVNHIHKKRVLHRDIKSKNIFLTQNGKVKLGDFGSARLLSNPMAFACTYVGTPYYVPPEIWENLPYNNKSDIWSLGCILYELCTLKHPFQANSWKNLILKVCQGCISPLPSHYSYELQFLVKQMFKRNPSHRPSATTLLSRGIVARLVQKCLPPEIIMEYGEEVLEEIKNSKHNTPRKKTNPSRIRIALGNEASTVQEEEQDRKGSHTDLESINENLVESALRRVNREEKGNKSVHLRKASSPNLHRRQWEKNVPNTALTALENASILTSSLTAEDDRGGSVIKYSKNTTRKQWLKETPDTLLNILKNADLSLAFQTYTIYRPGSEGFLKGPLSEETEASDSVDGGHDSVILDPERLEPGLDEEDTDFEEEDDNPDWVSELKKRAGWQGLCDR
Briefly: Selectivity interaction (Kinase panel (KiNativ target engagement assay in Jurkat cells)) EUB0001635a NEK3. Type of assay: cell-based. The conditions noted are these: at 1 µM.

Chain of SRSF protein kinase 1 (Q96SB4 whole entry): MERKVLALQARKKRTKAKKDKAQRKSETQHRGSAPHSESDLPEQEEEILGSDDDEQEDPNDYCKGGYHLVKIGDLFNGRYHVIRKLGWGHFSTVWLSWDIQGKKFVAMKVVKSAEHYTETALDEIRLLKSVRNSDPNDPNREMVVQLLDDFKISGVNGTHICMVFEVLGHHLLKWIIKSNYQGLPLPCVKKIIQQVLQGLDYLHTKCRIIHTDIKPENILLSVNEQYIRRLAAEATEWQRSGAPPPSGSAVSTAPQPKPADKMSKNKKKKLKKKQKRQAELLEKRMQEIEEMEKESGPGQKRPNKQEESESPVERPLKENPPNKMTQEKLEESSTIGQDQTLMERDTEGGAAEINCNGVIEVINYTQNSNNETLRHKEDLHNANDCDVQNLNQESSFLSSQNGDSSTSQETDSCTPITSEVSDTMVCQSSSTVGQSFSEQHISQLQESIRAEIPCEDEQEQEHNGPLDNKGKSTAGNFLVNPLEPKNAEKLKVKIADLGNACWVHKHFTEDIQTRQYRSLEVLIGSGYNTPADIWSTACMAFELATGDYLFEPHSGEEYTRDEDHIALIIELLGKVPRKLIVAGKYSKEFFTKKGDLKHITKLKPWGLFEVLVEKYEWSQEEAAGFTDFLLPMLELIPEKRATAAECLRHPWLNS
Chain of Ephrin type-B receptor 4 (P54760 whole entry): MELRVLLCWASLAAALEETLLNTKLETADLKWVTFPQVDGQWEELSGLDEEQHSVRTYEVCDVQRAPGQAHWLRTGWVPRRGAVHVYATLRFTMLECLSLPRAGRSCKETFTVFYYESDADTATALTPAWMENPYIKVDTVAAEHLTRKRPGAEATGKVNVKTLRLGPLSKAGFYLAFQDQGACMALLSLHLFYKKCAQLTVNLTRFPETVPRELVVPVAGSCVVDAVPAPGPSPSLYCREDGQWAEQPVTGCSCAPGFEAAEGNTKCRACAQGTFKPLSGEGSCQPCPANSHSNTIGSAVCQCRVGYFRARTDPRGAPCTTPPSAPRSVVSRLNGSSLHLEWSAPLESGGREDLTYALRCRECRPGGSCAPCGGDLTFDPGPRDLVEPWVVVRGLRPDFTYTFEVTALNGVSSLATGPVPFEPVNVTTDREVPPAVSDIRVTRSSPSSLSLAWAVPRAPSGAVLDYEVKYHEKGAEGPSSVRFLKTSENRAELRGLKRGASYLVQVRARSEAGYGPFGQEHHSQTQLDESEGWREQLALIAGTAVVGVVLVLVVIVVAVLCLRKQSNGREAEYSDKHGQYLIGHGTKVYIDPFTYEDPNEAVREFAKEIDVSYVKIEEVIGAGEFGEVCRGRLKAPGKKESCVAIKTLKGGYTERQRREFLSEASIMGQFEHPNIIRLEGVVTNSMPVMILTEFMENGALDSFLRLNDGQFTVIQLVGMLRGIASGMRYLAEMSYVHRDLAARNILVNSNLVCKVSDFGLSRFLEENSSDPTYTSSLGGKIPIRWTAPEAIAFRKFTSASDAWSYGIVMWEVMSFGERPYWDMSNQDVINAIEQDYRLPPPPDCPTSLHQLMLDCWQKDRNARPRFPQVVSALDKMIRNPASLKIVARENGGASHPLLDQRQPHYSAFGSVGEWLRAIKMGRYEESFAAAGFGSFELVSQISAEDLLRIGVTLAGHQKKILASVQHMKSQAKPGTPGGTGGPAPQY
Chain of Homeodomain-interacting protein kinase 2 (Q9H2X6 whole entry, looked up): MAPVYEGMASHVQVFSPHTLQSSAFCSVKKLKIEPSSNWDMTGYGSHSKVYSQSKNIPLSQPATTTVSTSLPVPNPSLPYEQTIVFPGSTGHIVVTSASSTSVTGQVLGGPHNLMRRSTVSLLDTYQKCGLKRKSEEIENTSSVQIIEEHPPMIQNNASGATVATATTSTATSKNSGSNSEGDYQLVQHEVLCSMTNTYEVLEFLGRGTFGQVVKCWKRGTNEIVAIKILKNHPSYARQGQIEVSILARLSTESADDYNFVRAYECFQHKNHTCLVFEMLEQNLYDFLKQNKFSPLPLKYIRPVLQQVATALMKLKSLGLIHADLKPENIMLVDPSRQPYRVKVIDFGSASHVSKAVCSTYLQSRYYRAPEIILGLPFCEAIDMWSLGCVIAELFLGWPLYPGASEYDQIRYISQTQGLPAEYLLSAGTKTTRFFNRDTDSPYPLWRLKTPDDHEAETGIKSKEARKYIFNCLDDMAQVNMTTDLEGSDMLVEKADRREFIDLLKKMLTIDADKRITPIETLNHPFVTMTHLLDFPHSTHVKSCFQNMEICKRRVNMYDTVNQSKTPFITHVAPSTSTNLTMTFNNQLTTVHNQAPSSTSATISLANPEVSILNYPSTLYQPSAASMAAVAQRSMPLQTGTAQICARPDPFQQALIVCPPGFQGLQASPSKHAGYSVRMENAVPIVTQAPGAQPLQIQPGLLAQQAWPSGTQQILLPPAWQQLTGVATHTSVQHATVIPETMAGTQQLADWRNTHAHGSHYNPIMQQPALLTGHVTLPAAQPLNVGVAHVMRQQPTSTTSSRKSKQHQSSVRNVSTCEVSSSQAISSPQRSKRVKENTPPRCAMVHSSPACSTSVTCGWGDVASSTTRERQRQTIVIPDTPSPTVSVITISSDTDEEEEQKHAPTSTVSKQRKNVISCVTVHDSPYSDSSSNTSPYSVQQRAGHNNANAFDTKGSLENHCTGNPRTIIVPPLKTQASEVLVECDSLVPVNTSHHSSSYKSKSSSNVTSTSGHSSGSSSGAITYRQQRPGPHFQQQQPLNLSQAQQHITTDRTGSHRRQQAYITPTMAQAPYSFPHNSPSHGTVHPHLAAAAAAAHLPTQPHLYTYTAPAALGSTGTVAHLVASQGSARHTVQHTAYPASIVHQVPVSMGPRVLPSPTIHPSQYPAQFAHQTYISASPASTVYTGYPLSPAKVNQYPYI
Chain of Platelet-derived growth factor receptor alpha (P16234 whole entry): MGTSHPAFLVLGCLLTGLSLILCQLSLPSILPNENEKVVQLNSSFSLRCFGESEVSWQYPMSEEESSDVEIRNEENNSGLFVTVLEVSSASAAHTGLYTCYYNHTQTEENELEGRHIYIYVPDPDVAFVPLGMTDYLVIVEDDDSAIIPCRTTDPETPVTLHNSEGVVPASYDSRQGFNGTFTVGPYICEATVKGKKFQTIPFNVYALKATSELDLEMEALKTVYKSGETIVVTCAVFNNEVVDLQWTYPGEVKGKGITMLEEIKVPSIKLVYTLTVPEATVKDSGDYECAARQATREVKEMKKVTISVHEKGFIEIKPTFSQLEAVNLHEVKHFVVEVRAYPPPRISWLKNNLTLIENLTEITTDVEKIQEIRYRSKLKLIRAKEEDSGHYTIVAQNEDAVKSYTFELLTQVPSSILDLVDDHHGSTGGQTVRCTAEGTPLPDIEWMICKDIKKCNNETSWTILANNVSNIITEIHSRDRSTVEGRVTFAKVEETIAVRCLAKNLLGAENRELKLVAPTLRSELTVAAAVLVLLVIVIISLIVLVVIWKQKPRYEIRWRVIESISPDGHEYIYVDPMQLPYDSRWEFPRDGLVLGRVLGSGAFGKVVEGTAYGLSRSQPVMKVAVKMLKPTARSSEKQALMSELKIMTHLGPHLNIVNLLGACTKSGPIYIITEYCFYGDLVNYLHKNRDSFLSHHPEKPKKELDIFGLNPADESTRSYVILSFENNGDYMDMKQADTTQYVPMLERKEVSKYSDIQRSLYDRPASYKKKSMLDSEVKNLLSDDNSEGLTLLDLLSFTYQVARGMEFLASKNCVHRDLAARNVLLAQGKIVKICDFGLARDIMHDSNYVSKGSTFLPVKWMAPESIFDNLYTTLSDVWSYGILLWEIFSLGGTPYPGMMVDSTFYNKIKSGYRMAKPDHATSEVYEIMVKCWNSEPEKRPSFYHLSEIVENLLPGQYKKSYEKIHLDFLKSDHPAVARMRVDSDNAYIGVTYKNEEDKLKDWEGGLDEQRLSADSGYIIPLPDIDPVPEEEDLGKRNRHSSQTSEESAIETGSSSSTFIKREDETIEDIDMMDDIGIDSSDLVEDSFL
Chain of Ribosomal protein S6 kinase alpha-5 (Homo sapiens) (O75582 whole entry, looked up): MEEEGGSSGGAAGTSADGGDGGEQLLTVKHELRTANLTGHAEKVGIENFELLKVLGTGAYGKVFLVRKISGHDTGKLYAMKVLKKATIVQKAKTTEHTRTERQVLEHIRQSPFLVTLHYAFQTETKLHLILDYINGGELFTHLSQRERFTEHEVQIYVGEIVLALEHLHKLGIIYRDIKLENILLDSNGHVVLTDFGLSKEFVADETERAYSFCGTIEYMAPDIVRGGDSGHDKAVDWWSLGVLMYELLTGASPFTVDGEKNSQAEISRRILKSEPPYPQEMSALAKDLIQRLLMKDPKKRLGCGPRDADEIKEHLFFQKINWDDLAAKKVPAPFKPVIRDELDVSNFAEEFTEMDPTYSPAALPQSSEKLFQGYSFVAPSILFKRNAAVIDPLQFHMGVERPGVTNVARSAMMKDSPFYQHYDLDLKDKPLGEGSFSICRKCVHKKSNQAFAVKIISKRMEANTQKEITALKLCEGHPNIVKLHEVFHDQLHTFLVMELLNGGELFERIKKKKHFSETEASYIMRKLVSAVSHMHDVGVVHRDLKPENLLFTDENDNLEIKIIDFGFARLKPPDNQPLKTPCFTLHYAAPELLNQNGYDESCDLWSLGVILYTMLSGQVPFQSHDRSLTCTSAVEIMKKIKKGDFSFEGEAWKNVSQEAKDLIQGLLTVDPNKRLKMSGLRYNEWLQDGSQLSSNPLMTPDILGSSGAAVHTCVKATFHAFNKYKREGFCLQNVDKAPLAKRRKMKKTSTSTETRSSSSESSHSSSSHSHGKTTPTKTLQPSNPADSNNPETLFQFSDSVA
Chain of Growth hormone secretagogue receptor type 1 (Q92847 whole entry): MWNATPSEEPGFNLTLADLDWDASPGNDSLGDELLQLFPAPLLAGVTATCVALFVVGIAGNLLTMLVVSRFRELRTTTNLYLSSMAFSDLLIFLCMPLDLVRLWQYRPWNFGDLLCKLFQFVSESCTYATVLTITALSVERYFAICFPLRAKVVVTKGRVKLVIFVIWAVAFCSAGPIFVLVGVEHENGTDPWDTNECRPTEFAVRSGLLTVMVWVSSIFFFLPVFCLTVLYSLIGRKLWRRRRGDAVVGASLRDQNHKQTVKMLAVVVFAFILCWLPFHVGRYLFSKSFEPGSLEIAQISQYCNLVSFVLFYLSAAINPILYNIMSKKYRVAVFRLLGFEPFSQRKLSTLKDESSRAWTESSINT

`N#Cc1cccc(-c2c[nH]c3ncnc(N4CCOCC4)c23)c1`: in assay [1], the % of control amounted to 38%.
For the molecule `CC(=O)c1cc(-c2ccccc2OCC2CC2)c2ncccn12`, the % of control in [2] is 81%.
In the case of `CCN(CC)CCCCNc1ncc2cc(-c3cc(OC)cc(OC)c3)c(NC(=O)NC(C)(C)C)nc2n1`, the % of control in [3] stood at 100%.
As for `CNC(=O)Nc1ccc(-c2nc(N3CC4CCC(C3)O4)c3cnn(C4CCC5(CC4)OCCO5)c3n2)cc1`, the % of control in [4] was found to be 90%.
For `CN(C(=O)c1cnn2cccnc12)c1cc2c(cc1N1CCOCC1)C(=O)N(C[C@@H](F)C(C)(C)O)C2`, the dTM in assay [5] is -0.3 K.
For `C=CC(=O)Nc1cc(-n2c(=O)ccc3cnc4ccc(-c5ccc(NS(C)(=O)=O)cc5)cc4c32)ccc1C`, the % of control in assay [6] (at 1 µM) and in [6] (at 10 µM) was 93% in each case.
As for `C=CC(=O)Nc1cccc(C(=O)Nc2ccc(Nc3cc(-c4[nH]c(SC)nc4C)ccn3)cc2)c1`, the values for the % of control in assay [7] (at 1 µM) and in [7] (at 5 µM) were 99% and 86%, respectively.
`COc1cc(Nc2nc(C)cc(-c3cnn4nc(OC)ccc34)n2)cc(C(F)(F)F)c1`: the % of control in assay [8] was found to be 94%.
In the case of `CCC(=O)N1CC[C@H](Nc2ncnc3c2CN(c2cnc(OC)c(C(F)(F)F)c2)CC3)C1` [LENIOLISIB], the IC50 in [9] is > 30 µM; in assay [10] it was > 10 µM.
As to `O[C@H]1CC[C@H](Nc2ncc3nc(Nc4c(F)cc(F)cc4F)n([C@H]4CCOC4)c3n2)CC1`, in [11], the % of control was determined as 100%.
For the molecule `CCC(=O)N1CCN(c2ccc(-n3c(=O)ccc4cnc5ccc(-c6cnc7ccccc7c6)cc5c43)cc2C(F)(F)F)CC1`, the % of control in assay [12] stood at 63%.
Take `CN(C)CCCOc1ccc(-c2cc(NCCCn3cccn3)nc(S(C)(=O)=O)n2)cc1`: the dTM in [13] was < 2 K.
As for `C=CC(=O)Nc1ccc(C(=O)Nc2[nH]nc3c2CN(C(=O)N[C@H](CN(C)C)c2ccccc2)C3(C)C)cc1`, the % of engagement in [14] is 4.4%.

Source of the values: ChEMBL document CHEMBL5465560, “Selectivity Literature for EUbOPEN Chemogenomic Library” (2024).
